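Each compound was tested at five concentrations against cells in 96-well plates for 48 hours. The concentration for 50% growth inhibition is given as GI50. TGI: concentration producing complete growth inhibition.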
Experiments:
Assay in all cases: DTP human tumour cell line panel, 48 h
[1] = tested on: EKVX NSCLC
[2] = tested on: BT-549 breast
[3] = tested on: OVCAR-3 ovarian
[4] = tested on: A498 renal
[5] = tested on: SN12C renal
[6] = tested on: MDA-MB-435
[7] = tested on: SK-MEL-28 melanoma
[8] = tested on: HS 578T breast
[9] = tested on: COLO 205 colon
[10] = tested on: UACC-62 melanoma
[11] = tested on: MDA-MB-231 breast
[12] = tested on: SF-268 CNS
[13] = tested on: OVCAR-8 ovarian
[14] = tested on: UACC-257 melanoma
[15] = tested on: OVCAR-4 ovarian
[16] = tested on: KM12 colon
[17] = tested on: MALME-3M melanoma
[18] = tested on: K-562 leukemia
[19] = tested on: NCI/ADR-RES ovarian
[20] = tested on: MOLT-4 leukemia
[21] = tested on: SK-OV-3 ovarian
[22] = tested on: PC-3 prostate
[23] = tested on: NCI-H23 lung
[24] = tested on: LOX IMVI melanoma
[25] = tested on: NCI-H460 lung
[26] = tested on: SNB-75 CNS
[27] = tested on: CCRF-CEM leukemia
[28] = tested on: RPMI-8226 leukemia
[29] = tested on: IGROV1 ovarian
[30] = tested on: U251 CNS
[31] = tested on: OVCAR-5 ovarian
[32] = tested on: NCI-H522 lung
[33] = tested on: UO-31 renal
[34] = tested on: TK-10 renal
[35] = tested on: MCF7 breast
[36] = tested on: SR leukemia
[37] = tested on: M14 melanoma
[38] = tested on: HCT-15 colon
[39] = tested on: RXF 393 renal
[40] = tested on: SK-MEL-5 melanoma
[41] = tested on: T-47D breast
[42] = tested on: ACHN renal
[43] = tested on: SK-MEL-2 melanoma
[44] = tested on: SF-295 CNS
[45] = tested on: HOP-92 NSCLC
[46] = tested on: SF-539 CNS
[47] = tested on: HOP-62 NSCLC
[48] = tested on: SNB-19 CNS
[49] = tested on: A549 NSCLC
[50] = tested on: HCC-2998 colon
[51] = tested on: NCI-H226 lung
[52] = tested on: HL-60(TB) leukemia
[53] = tested on: DU-145 prostate
[54] = tested on: HCT-116 colon
[55] = tested on: HT29 colon
[56] = tested on: SW-620 colon
[57] = tested on: CAKI-1 renal
[58] = tested on: 786-0 renal

Which results are given for `Brc1ccc2[nH]cc(-c3nn4cc(-c5nccs5)nc4s3)c2c1`?
GI50 [1]: 4.45 µM; TGI [1]: > 56.7 µM; GI50 [2]: 3.22 µM; TGI [2]: 11.8 µM; GI50 [3]: 2.58 µM; TGI [3]: 7.62 µM; GI50 [4]: 16 µM; TGI [4]: 32 µM; GI50 [5]: 8.1 µM; TGI [5]: > 50.9 µM; GI50 [6]: 4.4 µM; TGI [6]: 20.1 µM; GI50 [7]: 9.15 µM; TGI [7]: > 59.3 µM; GI50 [8]: 4.88 µM; TGI [8]: > 64 µM; GI50 [9]: 5.31 µM; TGI [9]: 21.9 µM; GI50 [10]: > 57.7 µM; TGI [10]: > 100 µM; GI50 [11]: 1.82 µM; TGI [11]: 5.04 µM; GI50 [12]: 7.98 µM; TGI [12]: 68.9 µM; GI50 [13]: 2.53 µM; TGI [13]: 6.77 µM; GI50 [14]: 10.5 µM; TGI [14]: > 62.5 µM; GI50 [15]: 5.04 µM; TGI [15]: 14.9 µM; GI50 [16]: 7.16 µM; TGI [16]: > 100 µM; GI50 [17]: 3.71 µM; TGI [17]: 12.1 µM; GI50 [18]: 2.84 µM; TGI [18]: 11.9 µM; GI50 [19]: 2.28 µM; TGI [19]: 7.1 µM; GI50 [20]: 2.58 µM; TGI [20]: > 100 µM; GI50 [21]: 10.3 µM; TGI [21]: 26.3 µM; GI50 [22]: 2.36 µM; TGI [22]: 10.8 µM; GI50 [23]: 2.49 µM; TGI [23]: 10.2 µM; GI50 [24]: 2.41 µM; TGI [24]: 10.3 µM; GI50 [25]: 2.51 µM; TGI [25]: 7.36 µM; GI50 [26]: 1.79 µM; TGI [26]: 7.94 µM; GI50 [27]: 3.06 µM; TGI [27]: > 40 µM; GI50 [28]: 2.25 µM; TGI [28]: 9.84 µM; GI50 [29]: 2.58 µM; TGI [29]: 14.6 µM; GI50 [30]: 8.49 µM; TGI [30]: 21.3 µM; GI50 [31]: 5.88 µM; TGI [31]: 22.1 µM; GI50 [32]: 9.76 µM; TGI [32]: 36.9 µM; GI50 [33]: 1.73 µM; TGI [33]: 6.57 µM; GI50 [34]: 9.55 µM; TGI [34]: 24.2 µM; GI50 [35]: 3.23 µM; TGI [35]: > 35.5 µM; GI50 [36]: 5.21 µM; TGI [36]: > 50.7 µM; GI50 [37]: 3.58 µM; TGI [37]: 16.1 µM; GI50 [38]: 3.25 µM; TGI [38]: > 34.7 µM; GI50 [39]: 2.32 µM; TGI [39]: 5.01 µM; GI50 [40]: 3.86 µM; TGI [40]: 18 µM; GI50 [41]: 3.19 µM; TGI [41]: > 75.7 µM; GI50 [42]: 2.39 µM; TGI [42]: 7.4 µM; GI50 [43]: 28.6 µM; TGI [43]: > 100 µM; GI50 [44]: 3 µM; TGI [44]: 9.89 µM; GI50 [45]: 1.77 µM; TGI [45]: 4.56 µM; GI50 [46]: 3.14 µM; TGI [46]: 12.2 µM; GI50 [47]: 2.46 µM; TGI [47]: 11.2 µM; GI50 [48]: 6.62 µM; TGI [48]: 22.6 µM; GI50 [49]: 2.6 µM; TGI [49]: 7.52 µM; GI50 [50]: 2.65 µM; TGI [50]: > 22.3 µM; GI50 [51]: 2.28 µM; TGI [51]: 8.95 µM; GI50 [52]: 22.8 µM; TGI [52]: > 100 µM; GI50 [53]: 5.39 µM; TGI [53]: 17.7 µM; GI50 [54]: 1.82 µM; TGI [54]: 3.44 µM; GI50 [55]: 7.9 µM; TGI [55]: > 69.1 µM; GI50 [56]: 6.68 µM; TGI [56]: > 58.1 µM; GI50 [57]: 2.46 µM; TGI [57]: 7.73 µM; GI50 [58]: 2 µM; TGI [58]: 4.11 µM

Source: PubChem BioAssay (NCI)
